Laboratory results: patent US20240368150A1 (Hoffmann-La Roche Inc., priority 2021, published 2024)
Like-named read-outs stand apart in the source and are kept apart here.

Legend:
primary human T-cells [1] = system: primary human T-cells
primary human T-cells [2] = experiment: Proliferation assay after 5 days (CellTiter-Glo, CD3 stimulation; PBS counter screen); assay type: cell-based; conditions: Homo sapiens, T-cell, 120 h, CD3 stimulation; for Emax: 5 days, normalized to reference compound A1 as stimulator control = 100%, DMSO neutral control, read-out: Emax proliferation (% activation); for EC50: primary human T-cells, CellTiter-Glo after 5 days, EC50 of fitted sigmoidal curve, read-out: Tcell Proliferation CD3 EC50
Summary of the method: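 Primary human T-cells, with or without CD3 stimulation, exposed to compounds for 5 days; cell number read as ATP by CellTiter-Glo 2.0 luminescence after 45 min equilibration and 15 min reagent incubation at room temperature. Compounds activating unstimulated cells or reducing viability were flagged.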

EC50 (primary human T-cells [1]) [nM] | Structure (SMILES) | Emax (primary human T-cells [2]) [%] | EC50 (primary human T-cells [2]) [nM]
1330 | CC(C)(CN1CCCCC1=O)c1nnc(-c2cc3c(cc2F)S(=O)(=O)C[C@H](N)C(=O)N3Cc2ccc(Cl)cc2)o1 [Example 66, (3R)-3-amino-5-[(4-chlorophenyl)methyl]-7-[5-[1,1-dimethyl-2-(2-oxo-1-piperidyl)ethyl]-1,3,4-oxadiazol-2-yl]-8-fluoro-1,1-dioxo-2,3-dihydro-1λ^6,5-benzothiazepin-4-one] | 112 | 2070
199 | N[C@H]1CS(=O)(=O)c2cc(F)c(-c3nnc(CCC(F)(F)F)o3)cc2N(Cc2ccc(Cl)cc2)C1=O [Example 67, (3R)-3-Amino-5-[(4-chlorophenyl)methyl]-8-fluoro-1,1-dioxo-7-[5-(3,3,3-trifluoropropyl)-1,3,4-oxadiazol-2-yl]-2,3-dihydro-1λ^6,5-benzothiazepin-4-one] | 165 | 112
> 20000 | N[C@H]1CS(=O)(=O)c2cc(F)c(-c3nnc(CC(F)(F)F)o3)cc2N(Cc2ccc(Cl)cc2)C1=O [Example 68, (3R)-3-Amino-5-[(4-chlorophenyl)methyl]-8-fluoro-1,1-dioxo-7-[5-(2,2,2-trifluoroethyl)-1,3,4-oxadiazol-2-yl]-2,3-dihydro-1λ^6,5-benzothiazepin-4-one] | 91 | 5140
1670 | CC(C)(N)c1nnc(-c2cc3c(cc2F)S(=O)(=O)C[C@H](N)C(=O)N3Cc2ccc(Cl)cc2)o1 [Example 69] | 171 | 4770
74.6 | CC(C)(F)c1nnc(-c2cc3c(cc2F)S(=O)(=O)C[C@H](N)C(=O)N3Cc2ccc(Cl)cc2)o1 [Example 70, (3R)-3-Amino-5-[(4-chlorophenyl)methyl]-8-fluoro-7-[5-(1-fluoro-1-methyl-ethyl)-1,3,4-oxadiazol-2-yl]-1,1-dioxo-2,3-dihydro-1λ^6,5-benzothiazepin-4-one] | 255 | 214
> 20000 | N[C@H]1CS(=O)(=O)c2cc(F)c(-c3nnc(CC(F)F)o3)cc2N(Cc2ccc(Cl)cc2)C1=O [Example 71, (3R)-3-Amino-5-[(4-chlorophenyl)methyl]-7-[5-(2,2-difluoroethyl)-1,3,4-oxadiazol-2-yl]-8-fluoro-1,1-dioxo-2,3-dihydro-1λ^6,5-benzothiazepin-4-one] | 71 | < 162
50.2 | N[C@H]1CS(=O)(=O)c2cc(F)c(-c3nnc(C4CCC(F)(F)CC4)o3)cc2N(Cc2ccc(Cl)cc2)C1=O [Example 73, (3R)-3-Amino-5-[(4-chlorophenyl)methyl]-7-[5-(4,4-difluorocyclohexyl)-1,3,4-oxadiazol-2-yl]-8-fluoro-1,1-dioxo-2,3-dihydro-1λ^6,5-benzothiazepin-4-one] | 194 | 126
114 | N[C@H]1CS(=O)(=O)c2cc(F)c(-c3nnc(C4CCC(F)(F)C4)o3)cc2N(Cc2ccc(Cl)cc2)C1=O (stereo partly drawn) [Example 75, (3R)-3-Amino-5-[(4-chlorophenyl)methyl]-7-[5-(3,3-difluorocyclopentyl)-1,3,4-oxadiazol-2-yl]-8-fluoro-1,1-dioxo-2,3-dihydro-1λ^6,5-benzothiazepin-4-one] | 161 | 35.1
749 | N[C@H]1CS(=O)(=O)c2cc(F)c(-c3nnc(C4CCCC4(F)F)o3)cc2N(Cc2ccc(Cl)cc2)C1=O (stereo partly drawn) [Example 76, (3R)-3-Amino-5-[(4-chlorophenyl)methyl]-7-[5-(2,2-difluorocyclopentyl)-1,3,4-oxadiazol-2-yl]-8-fluoro-1,1-dioxo-2,3-dihydro-1λ^6,5-benzothiazepin-4-one] | 173 | 1080
341 | N[C@H]1CS(=O)(=O)c2cc(F)c(-c3nnc(CC4CC(F)(F)C4)o3)cc2N(Cc2ccc(Cl)cc2)C1=O [Example 77, (3R)-3-Amino-5-[(4-chlorophenyl)methyl]-7-[5-[(3,3-difluorocyclobutyl)methyl]-1,3,4-oxadiazol-2-yl]-8-fluoro-1,1-dioxo-2,3-dihydro-1λ^6,5-benzothiazepin-4-one] | 183 | –
2350 | N[C@H]1CS(=O)(=O)c2cc(F)c(-c3nnc(CC4CCOCC4)o3)cc2N(Cc2ccc(Cl)cc2)C1=O [Example 78, (3R)-3-Amino-5-[(4-chlorophenyl)methyl]-8-fluoro-1,1-dioxo-7-[5-(tetrahydropyran-4-ylmethyl)-1,3,4-oxadiazol-2-yl]-2,3-dihydro-1λ^6,5-benzothiazepin-4-one] | 86 | 1110
176 | N[C@H]1CS(=O)(=O)c2cc(F)c(-c3nnc(C4CC(F)(F)C4)o3)cc2N(Cc2ccc(Cl)cc2)C1=O [Example 80, (3R)-3-Amino-5-[(4-chlorophenyl)methyl]-7-[5-(3,3-difluorocyclobutyl)-1,3,4-oxadiazol-2-yl]-8-fluoro-1,1-dioxo-2,3-dihydro-1λ^6,5-benzothiazepin-4-one] | 278 | 81.5
1270 | N[C@H]1CS(=O)(=O)c2cc(F)c(-c3nnc(C4CCC4(F)F)o3)cc2N(Cc2ccc(Cl)cc2)C1=O (stereo partly drawn) [Example 81, (3R)-3-Amino-5-[(4-chlorophenyl)methyl]-7-[5-(2,2-difluorocyclobutyl)-1,3,4-oxadiazol-2-yl]-8-fluoro-1,1-dioxo-2,3-dihydro-1λ^6,5-benzothiazepin-4-one] | 185 | 521
631 | N[C@H]1CS(=O)(=O)c2cc(F)c(-c3nnc(C4CCOCC4)o3)cc2N(Cc2ccc(Cl)cc2)C1=O [Example 82, (3R)-3-Amino-5-[(4-chlorophenyl)methyl]-8-fluoro-1,1-dioxo-7-(5-tetrahydropyran-4-yl-1,3,4-oxadiazol-2-yl)-2,3-dihydro-1λ^6,5-benzothiazepin-4-one] | 148 | 728
470 | N[C@H]1CS(=O)(=O)c2cc(F)c(-c3nnc(CCF)o3)cc2N(Cc2ccc(Cl)cc2)C1=O [Example 83, (3R)-3-Amino-5-[(4-chlorophenyl)methyl]-8-fluoro-7-[5-(2-fluoroethyl)-1,3,4-oxadiazol-2-yl]-1,1-dioxo-2,3-dihydro-1λ^6,5-benzothiazepin-4-one] | 27 | > 20000
450 | CC(C)c1nnc(-c2cc3c(cc2F)S(=O)(=O)C[C@H](N)C(=O)N3Cc2ccc(Cl)cc2)o1 [Example 84, (3R)-3-Amino-5-[(4-chlorophenyl)methyl]-8-fluoro-7-(5-isopropyl-1,3,4-oxadiazol-2-yl)-1,1-dioxo-2,3-dihydro-1λ^6,5-benzothiazepin-4-one] | 191 | 226
470 | N[C@H]1CS(=O)(=O)c2cc(F)c(-c3nnc(C4CC4)o3)cc2N(Cc2ccc(Cl)cc2)C1=O [Example 85, (3R)-3-Amino-5-[(4-chlorophenyl)methyl]-7-(5-cyclopropyl-1,3,4-oxadiazol-2-yl)-8-fluoro-1,1-dioxo-2,3-dihydro-1λ^6,5-benzothiazepin-4-one] | 100 | 237
1530 | CN(C)C(=O)c1nnc(-c2cc3c(cc2F)S(=O)(=O)C[C@H](N)C(=O)N3Cc2ccc(Cl)cc2)o1 [Example 87, N,N-dimethyl-5-[(3R)-3-amino-5-[(4-chlorophenyl)methyl]-8-fluoro-1,1,4-trioxo-2,3-dihydro-1λ^6,5-benzothiazepin-7-yl]-1,3,4-oxadiazole-2-carboxamide] | 82 | 2740
689 | CC1(c2nnc(-c3cc4c(cc3F)S(=O)(=O)C[C@H](N)C(=O)N4Cc3ccc(Cl)cc3)o2)CCCO1 (stereo partly drawn) [Example 88, (3R)-3-amino-5-[(4-chlorophenyl)methyl]-8-fluoro-7-[5-(2-methyltetrahydrofuran-2-yl)-1,3,4-oxadiazol-2-yl]-1,1-dioxo-2,3-dihydro-1λ^6,5-benzothiazepin-4-o] | 97 | 242
117 | CC(C)OCc1nnc(-c2cc3c(cc2F)S(=O)(=O)C[C@H](N)C(=O)N3Cc2ccc(Cl)cc2)o1 [Example 89, (3R)-3-amino-5-[(4-chlorophenyl)methyl]-8-fluoro-7-[5-(isopropoxymethyl)-1,3,4-oxadiazol-2-yl]-1,1-dioxo-2,3-dihydro-1λ^6,5-benzothiazepin-4-one] | 104 | 615
819 | CC(C)(C)NC(=O)c1nnc(-c2cc3c(cc2F)S(=O)(=O)C[C@H](N)C(=O)N3Cc2ccc(Cl)cc2)o1 [Example 90, N-tert-butyl-5-[(3R)-3-amino-5-[(4-chlorophenyl)methyl]-8-fluoro-1,1,4-trioxo-2,3-dihydro-1λ^6,5-benzothiazepin-7-yl]-1,3,4-oxadiazole-2-carboxamide] | 96 | 2340
145 | CC1(c2nnc(-c3cc4c(cc3F)S(=O)(=O)C[C@H](N)C(=O)N4Cc3ccc(Cl)cc3)o2)CCOCC1 [Example 92, (3R)-3-amino-5-[(4-chlorophenyl)methyl]-8-fluoro-7-[5-(4-methyltetrahydropyran-4-yl)-1,3,4-oxadiazol-2-yl]-1,1-dioxo-2,3-dihydro-1λ^6,5-benzothiazepin-4-one] | 141 | 196
660 | N[C@H]1CS(=O)(=O)c2cc(F)c(-c3nnc(C(=O)N4CCCC(F)(F)C4)o3)cc2N(Cc2ccc(Cl)cc2)C1=O [Example 93, (3R)-3-amino-5-[(4-chlorophenyl)methyl]-7-[5-(3,3-difluoropiperidine-1-carbonyl)-1,3,4-oxadiazol-2-yl]-8-fluoro-1,1-dioxo-2,3-dihydro-1λ^6,5-benzothiazepin-4-one] | 100 | 1750
